Values joined by “and” are separate entries in the source; they are usually repeats but may differ in a detail not shown here. Equal entries are not always repeated.
System: NCI-H1876 complex spheroid growth, % test/control
Experiment: Anticancer human tumor NCI-H1876 cell line growth inhibition [Asc];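 further: compound exposure lasted 7 days starting three days after seeding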;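 on viability, T/C: 100% = DMSO vehicle control wells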
Details: for viability, T/C: stronger effect = lower value
Outline: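 Spheroid model: tumor line + HUVEC + hMSC. Single agents and combinations; top conc. at/near clinical Cmax (10 microM if undetermined), half-log dilutions. DMSO stocks at 800-fold test concentration.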

O=C(c1cc(Cc2n[nH]c(=O)c3ccccc23)ccc1F)N1CCN(C(=O)C2CC2)CC1 + CNC(C)C(=O)NC1CN(S(=O)(=O)c2cccc(S(=O)(=O)N3CCC4CCC(C(=O)NC(c5ccccc5)c5ccccc5)N4C(=O)C(NC(=O)C(C)NC)C3)c2)CCC2CCC(C(=O)NC(c3ccccc3)c3ccccc3)N2C1=O
IC50 (curve of first compound, second compound 0.00316 µM): 4.73 µM | IC50 (curve of first compound, second compound 0.01 µM): > 10 µM | IC50 (curve of first compound, second compound 0.0316 µM): > 10 µM | IC50 (curve of first compound, second compound 0.1 µM): > 10 µM | IC50 (curve of first compound, second compound 0.316 µM): > 10 µM | IC50 (curve of first compound, second compound 1 µM): > 10 µM | viability, T/C (second compound 0.00316 µM, first compound 0.0316 µM): 67% | viability, T/C (second compound 0.00316 µM, first compound 0.1 µM): 61.7% | viability, T/C (second compound 0.00316 µM, first compound 0.316 µM): 65.1% | viability, T/C (second compound 0.00316 µM, first compound 1 µM): 66.5% | viability, T/C (second compound 0.00316 µM, first compound 3.16 µM): 60.6% | viability, T/C (second compound 0.00316 µM, first compound 10 µM): 29.6% | viability, T/C (second compound 0.01 µM, first compound 0.0316 µM): 96% | viability, T/C (second compound 0.01 µM, first compound 0.1 µM): 93% | viability, T/C (second compound 0.01 µM, first compound 0.316 µM): 105% | viability, T/C (second compound 0.01 µM, first compound 1 µM): 101% | viability, T/C (second compound 0.01 µM, first compound 3.16 µM): 96.5% | viability, T/C (second compound 0.01 µM, first compound 10 µM): 66.3% | viability, T/C (second compound 0.0316 µM, first compound 0.0316 µM): 98.5% | viability, T/C (second compound 0.0316 µM, first compound 0.1 µM): 93.7% | viability, T/C (second compound 0.0316 µM, first compound 0.316 µM): 92% | viability, T/C (second compound 0.0316 µM, first compound 1 µM): 99.9% | viability, T/C (second compound 0.0316 µM, first compound 3.16 µM): 97.8% | viability, T/C (second compound 0.0316 µM, first compound 10 µM): 69.8% | viability, T/C (second compound 0.1 µM, first compound 0.0316 µM): 89.5% | viability, T/C (second compound 0.1 µM, first compound 0.1 µM): 97.6% | viability, T/C (second compound 0.1 µM, first compound 0.316 µM): 103% | viability, T/C (second compound 0.1 µM, first compound 1 µM): 105% | viability, T/C (second compound 0.1 µM, first compound 3.16 µM): 95.6% | viability, T/C (second compound 0.1 µM, first compound 10 µM): 62.4% | viability, T/C (second compound 0.316 µM, first compound 0.0316 µM): 94.2% | viability, T/C (second compound 0.316 µM, first compound 0.1 µM): 99.9% | viability, T/C (second compound 0.316 µM, first compound 0.316 µM): 116% | viability, T/C (second compound 0.316 µM, first compound 1 µM): 111% | viability, T/C (second compound 0.316 µM, first compound 3.16 µM): 104% | viability, T/C (second compound 0.316 µM, first compound 10 µM): 66.7% | viability, T/C (second compound 1 µM, first compound 0.0316 µM): 101% | viability, T/C (second compound 1 µM, first compound 0.1 µM): 91.2% | viability, T/C (second compound 1 µM, first compound 0.316 µM): 97% | viability, T/C (second compound 1 µM, first compound 1 µM): 104% | viability, T/C (second compound 1 µM, first compound 3.16 µM): 101% | viability, T/C (second compound 1 µM, first compound 10 µM): 56.6%

NC1CCC(NC2CC2c2ccccc2)CC1 (stereo not drawn)
viability, T/C (compound 0.000316 µM): 121% and 119% (2×) | viability, T/C (compound 0.001 µM): 108% and 95.7% and 118% | viability, T/C (compound 0.00316 µM): 118% and 112% and 134% | viability, T/C (compound 0.01 µM): 116% and 106% and 120% | viability, T/C (compound 0.0316 µM): 116% and 112% and 131% | viability, T/C (compound 0.1 µM): 107% and 112% and 136% | IC50 (curve of compound): > 0.1 µM

C#Cc1c(F)ccc2cc(O)cc(-c3ncc4c(N5CC6CCC(C5)N6)nc(OCC56CCCN5CC(F)C6)nc4c3F)c12 (stereo not drawn)
viability, T/C (compound 0.0316 µM): 104% (2×) and 97.2% | viability, T/C (compound 0.1 µM): 82.3% and 98.9% and 99.3% | viability, T/C (compound 0.316 µM): 112% and 115% and 94.7% | viability, T/C (compound 1 µM): 92.9% and 80.2% and 91% | viability, T/C (compound 3.16 µM): 90.2% and 97.4% and 102% | viability, T/C (compound 10 µM): 89.6% (2×) and 88.2% | IC50 (curve of compound): > 10 µM

O=C(c1ccc(F)c(F)c1Nc1ccc(I)cc1F)N1CC(O)([C@@H]2CCCCN2)C1 + CCN1C(C(=O)NC23CCC(C(=O)O)(CC2)CC3)C(c2cccc(Cl)c2F)C2(C(=O)Nc3cc(Cl)ccc32)C12CCCCC2
IC50 (curve of first compound, second compound 0.00949 µM): > 1 µM | IC50 (curve of first compound, second compound 0.03 µM): > 1 µM | IC50 (curve of first compound, second compound 0.0949 µM): > 1 µM | IC50 (curve of first compound, second compound 0.3 µM): > 1 µM | IC50 (curve of first compound, second compound 0.949 µM): > 1 µM | IC50 (curve of first compound, second compound 3 µM): > 1 µM | viability, T/C (second compound 0.00949 µM, first compound 0.00316 µM): 102% | viability, T/C (second compound 0.00949 µM, first compound 0.01 µM): 90.7% | viability, T/C (second compound 0.00949 µM, first compound 0.0316 µM): 104% | viability, T/C (second compound 0.00949 µM, first compound 0.1 µM): 95.7% | viability, T/C (second compound 0.00949 µM, first compound 0.316 µM): 93.4% | viability, T/C (second compound 0.00949 µM, first compound 1 µM): 87.7% | viability, T/C (second compound 0.03 µM, first compound 0.00316 µM): 100% | viability, T/C (second compound 0.03 µM, first compound 0.01 µM): 98.5% | viability, T/C (second compound 0.03 µM, first compound 0.0316 µM): 95.5% | viability, T/C (second compound 0.03 µM, first compound 0.1 µM): 95.1% | viability, T/C (second compound 0.03 µM, first compound 0.316 µM): 89.5% | viability, T/C (second compound 0.03 µM, first compound 1 µM): 82.3% | viability, T/C (second compound 0.0949 µM, first compound 0.00316 µM): 104% | viability, T/C (second compound 0.0949 µM, first compound 0.01 µM): 97.5% | viability, T/C (second compound 0.0949 µM, first compound 0.0316 µM): 88% | viability, T/C (second compound 0.0949 µM, first compound 0.1 µM): 102% | viability, T/C (second compound 0.0949 µM, first compound 0.316 µM): 85.8% | viability, T/C (second compound 0.0949 µM, first compound 1 µM): 79.2% | viability, T/C (second compound 0.3 µM, first compound 0.00316 µM): 99.9% | viability, T/C (second compound 0.3 µM, first compound 0.01 µM): 110% | viability, T/C (second compound 0.3 µM, first compound 0.0316 µM): 109% | viability, T/C (second compound 0.3 µM, first compound 0.1 µM): 101% | viability, T/C (second compound 0.3 µM, first compound 0.316 µM): 103% | viability, T/C (second compound 0.3 µM, first compound 1 µM): 83.7% | viability, T/C (second compound 0.949 µM, first compound 0.00316 µM): 110% | viability, T/C (second compound 0.949 µM, first compound 0.01 µM): 114% | viability, T/C (second compound 0.949 µM, first compound 0.0316 µM): 112% | viability, T/C (second compound 0.949 µM, first compound 0.1 µM): 109% | viability, T/C (second compound 0.949 µM, first compound 0.316 µM): 108% | viability, T/C (second compound 0.949 µM, first compound 1 µM): 77.4% | viability, T/C (second compound 3 µM, first compound 0.00316 µM): 103% | viability, T/C (second compound 3 µM, first compound 0.01 µM): 98.3% | viability, T/C (second compound 3 µM, first compound 0.0316 µM): 101% | viability, T/C (second compound 3 µM, first compound 0.1 µM): 99.1% | viability, T/C (second compound 3 µM, first compound 0.316 µM): 91.3% | viability, T/C (second compound 3 µM, first compound 1 µM): 77.4%

Source: PubChem BioAssay AID1963441 (Molecular Pharmacology Branch, DTP, NCI, 2024)
